According to BigSolDB 2.1:

O=C(c1ccc(F)cc1)c1ccc(F)cc1
solubility (mole fraction)
Conditions | in acetone | in acetonitrile | in ethanol | in ethyl acetate | in isobutanol | in isopropanol | in methanol | in methyl acetate | in n-butanol | in n-propanol
293.15 K | 0.0915 | 0.03 | 0.0084 | 0.101 | 0.0097 | 0.0079 | 0.0062 | 0.0956 | 0.011 | 0.0103
298.15 K | 0.107 | 0.0386 | 0.0104 | 0.117 | 0.0125 | 0.0101 | 0.0076 | 0.112 | 0.014 | 0.0127
303.15 K | 0.126 | 0.0491 | 0.0129 | 0.134 | 0.0158 | 0.0131 | 0.0093 | 0.131 | 0.0177 | 0.0159
308.15 K | 0.147 | 0.0631 | 0.016 | 0.155 | 0.02 | 0.017 | 0.0114 | 0.152 | 0.0225 | 0.0197
313.15 K | 0.172 | 0.08 | 0.0197 | 0.177 | 0.0255 | 0.0217 | 0.0138 | 0.177 | 0.0282 | 0.0246
318.15 K | 0.199 | 0.101 | 0.0242 | 0.203 | 0.0322 | 0.0276 | 0.0168 | 0.205 | 0.0354 | 0.0305
323.15 K | 0.231 | 0.126 | 0.0297 | 0.231 | 0.0407 | 0.0352 | 0.0204 | 0.238 | 0.0444 | 0.0378
328.15 K | 0.266 | 0.158 | 0.0364 | 0.264 | 0.0511 | 0.0445 | 0.0245 | 0.274 | 0.0555 | 0.0467
333.15 K | 0.308 | 0.197 | 0.0447 | 0.299 | 0.0643 | 0.056 | 0.0297 | 0.316 | 0.0691 | 0.0576
